Values quoted from earlier work, collected in patent publication US7732395B2, “Water-stabilized antimicrobial organosilane products, compositions, and methods for using the same” (Vitec Specialty Chemicals Ltd., priority 2006, dated 2010).

Conditions: prior art

CCCCCCCCCCCCCCCCCC[N+](C)(C)CCC[Si](OC)(OC)OC.[Cl-] [3-(trimethoxysilyl)propyl-dimethyloctadecyl ammonium chloride]
time after which the mixture with water begins to lose effectiveness: four to eight
